According to patent US20190336579A1, “COMPOSITIONS AND METHODS TO INDUCE TARGETED APOPTOSIS BY MODULATING PROTEIN TYROSINE PHOSPHATASE 13 (PTPN13)” (National Jewish Health, priority 2010, published 2019):

Tests used:
caspase-8 = assay: Caspase-8 activation (Fas-induced apoptosis) in lung fibroblasts; format: cell-based, human; details: MRC5
Experimental: To assess the effects of these cytokines on PTPN13 expression, non-diseased normal human lung fibroblasts (NHLF), fibrotic human lung fibroblasts (FHLF) and a fetal lung fibroblast cell line, MRC5 cells, were treated with TNF-α (10/ng/ml), IFN-γ (50 U/ml) or with both cytokines for 6 hours. PTPN13 expression was measured by quantitative PCR (FIG. 2A). The primary lung fibroblasts from normal and fibrotic lung had equivalent levels of PTPN13 expression to the MRC5 lung fibroblast cell line. […] Treatment with TNF-α alone caused a 40% decrease in PTPN13 expression. Combined exposure to TNF-α and IFN-γ decreased PTPN13 mRNA expression by 80%. Protein lysates from normal, fibrotic and MRC5 fibroblasts treated for 36 hours with TNF-α (10/ng/ml), IFN-γ (50 U/ml) or with both cytokines were then analyzed for PTPN13 expression. […]
In one exemplary method, to assess whether PTPN13 expression prevents Fas-induced apoptosis, PTPN13 expression was knocked-down using siRNA. […] Apoptosis was assayed by quantifying activation of caspase-3 and caspase-8 (FIG. 3C).
In death-receptor mediated apoptosis, formation of the DISC (Death-Inducing Signaling Complex) is essential for the initiation of apoptosis. […] The cells were lysed, immunoprecipitated with anti-Fas antibody, and co-immunoprecipitated FADD and caspase-8 were detected by immunoblotting. […]

Fas phospho-Y291 = assay: Western blot of Fas tyrosine 291 phosphorylation in MRC5 lung fibroblasts; format: cell-based, human; details: pervanadate 150 μM, time dependent
Experimental: PTPN13 has been shown in astrocytoma cells to dephosphorylate Fas at tyrosine 291. Little is known about the regulatory function of tyrosine phosphorylation of Fas. In another exemplary embodiment, to assess the effect of TNF-α and IFN-γ sensitization on the levels of Fas tyrosine phosphorylation, MRC5 lung fibroblasts were treated with TNF-α and IFN-γ for increasing amounts of time. Because TNF-α is known to increase tyrosine phosphorylation of many proteins, such as MAP kinases and AKT, within minutes following stimulation, the kinetics of TNF-α and IFN-γ induced tyrosine phosphorylation of Fas were assessed. MRC5 lung fibroblasts were treated with TNF-α (10 ng/ml) and IFN-γ (50 U/ml) for up to 48 hours. The cells were lysed and analyzed by western blot for phosphorylated Fas, using a phospho-specific antibody for Fas phosho-Y291. TNF-α and IFN-γ increased tyrosine phosphorylation of Fas at tyrosine residue 291 beginning at 18 hours. […] The pervanadate treated MRC5 cells were lysed and analyzed the tyrosine phosphorylation of Fas by western blotting. […] We then detected phosphorylated Fas by Western blot, using a phospho-specific antibody for Fas tyrosine residue 291. […]
FIG. 5: Inhibition of tyrosine phosphatase activity sensitizes lung fibroblasts to Fas-induced apoptosis. […] Caspase-8 activation was measured by a fluorescence based assay. […]

pervanadate
increase in caspase-8 activity over unstimulated cells (caspase-8; 150 μM pervanadate 2 hour pre-treatment, then Fas-activating antibody 250 ng/ml): 6 fold | increase in caspase-8 activity above untreated cells (caspase-8; 150 μM pervanadate alone): 2 fold | tyrosine phosphorylation of Fas (Fas phospho-Y291): increased
